The test system of this experiment is CD2F1 mice, L1210 leukemia sc, survival T/C. In words: NCI In Vivo Anticancer Drug Screen. Data for tumor model L1210 Leukemia (subcutaneous) in CD2F1 (CDF1) mice. The settings on record: endpoint: median survival time, higher = longer survival. The method in brief:
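T/C ratio: treated-group survival or tumor size over vehicle-control group measurement, in mice carrying transplanted tumors.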

Where “and” joins values, the source holds several entries; their conditions need not be identical. Identical values can stand only once. Inconclusive results and toxic doses are left out.

Regarding `Cc1c(N)nc([C@H](CC(N)=O)NC[C@H](N)C(N)=O)nc1C(=O)N[C@H](C(=O)N[C@H](C)[C@@H](O)[C@H](C)C(=O)N[C@H](C(=O)NCCc1nc(-c2nc(C(=O)NCCC[S+](C)C)cs2)cs1)[C@@H](C)O)C(OC1OC(CO)C(O)C(O)C1OC1OC(CO)C(O)C(OC(N)=O)C1O)c1cnc[nH]1` (stereo partly drawn), the T/C is, setting by setting: (dose: 1.0 mg/kg/injection, schedule: Q01DX009 (ip), vehicle: saline) 100 % of control; (dose: 2.0 mg/kg/injection, schedule: Q01DX009 (ip), vehicle: saline) 100 % of control and 101 % of control and 107 % of control; (dose: 2.0 mg/kg/injection, schedule: Q01DX009 (sc), vehicle: saline) 110 % of control; (dose: 4.0 mg/kg/injection, schedule: Q01DX009 (ip), vehicle: saline) 100 % of control and 105 % of control and 109 % of control; (dose: 4.0 mg/kg/injection, schedule: Q01DX009 (sc), vehicle: saline) 102 % of control; (dose: 8.0 mg/kg/injection, schedule: Q01DX009 (ip), vehicle: saline) 100 % of control and 107 % of control and 109 % of control. The T/C was 102 % of control (dose: 8.0 mg/kg/injection, schedule: Q01DX009 (sc), vehicle: saline); 104 % of control and 107 % of control and 112 % of control (dose: 16.0 mg/kg/injection, schedule: Q01DX009 (ip), vehicle: saline); 106 % of control (dose: 16.0 mg/kg/injection, schedule: Q01DX009 (sc), vehicle: saline); 102 % of control and 109 % of control and 112 % of control (dose: 32.0 mg/kg/injection, schedule: Q01DX009 (ip), vehicle: saline); 100 % of control (dose: 32.0 mg/kg/injection, schedule: Q01DX009 (sc), vehicle: saline); 112 % of control (dose: 64.0 mg/kg/injection, schedule: Q01DX009 (ip), vehicle: saline).

Regarding `CS(=O)(=O)OCCCCOS(C)(=O)=O`, the T/C (dose: 8.4 mg/kg/injection, schedule: Q01DX Z (sc), vehicle: methylcellulose (MC)) was 100 % of control; the T/C (dose: 14.0 mg/kg/injection, schedule: Q01DX Z (sc), vehicle: methylcellulose (MC)) is 100 % of control; the T/C (dose: 23.0 mg/kg/injection, schedule: Q01DX Z (sc), vehicle: methylcellulose (MC)) was 100 % of control; the T/C (dose: 39.0 mg/kg/injection, schedule: Q01DX Z (sc), vehicle: methylcellulose (MC)) was 100 % of control; the T/C (dose: 65.0 mg/kg/injection, schedule: Q01DX Z (sc), vehicle: methylcellulose (MC)) is 100 % of control; the T/C (dose: 108.0 mg/kg/injection, schedule: Q01DX Z (sc), vehicle: methylcellulose (MC)) was 100 % of control.

As to `CC[C@@]1(O)C(=O)OCc2c1cc1n(c2=O)Cc2cc3ccccc3nc2-1`, the T/C (dose: 0.13 mg/kg/injection, schedule: Q01DX Z (sc), vehicle: carboxymethylcellulose (CMC)) was 111 % of control; the T/C (dose: 0.22 mg/kg/injection, schedule: Q01DX Z (sc), vehicle: carboxymethylcellulose (CMC)) is 111 % of control; the T/C (dose: 0.6 mg/kg/injection, schedule: Q01DX Z (sc), vehicle: carboxymethylcellulose (CMC)) was 111 % of control; the T/C (dose: 1.0 mg/kg/injection, schedule: Q01DX Z (sc), vehicle: carboxymethylcellulose (CMC)) was 122 % of control.

`Nc1nc(N)c2cc(CCc3ccc(C(=O)NC(CCC(=O)O)C(=O)O)cc3)ccc2n1` (stereo not drawn): the T/C is 98 % of control (dose: 0.04 mg/kg/injection, schedule: Q01DX009 (ip), vehicle: Klucel (hydroxypropylcellulose) (HPC)); 102 % of control (dose: 0.08 mg/kg/injection, schedule: Q01DX009 (ip), vehicle: Klucel (hydroxypropylcellulose) (HPC)); 105 % of control (dose: 0.16 mg/kg/injection, schedule: Q01DX009 (ip), vehicle: Klucel (hydroxypropylcellulose) (HPC)); 89 % of control (dose: 0.63 mg/kg/injection, schedule: Q01DX009 (ip), vehicle: Klucel (hydroxypropylcellulose) (HPC)).

Regarding `CN1CCN(CN2C(=O)C3C4C=CC(C3C2=O)C2C3C(=O)N(CN5CCN(C)CC5)C(=O)C3C42)CC1` (stereo not drawn), the T/C (dose: 21.6 mg/kg/injection, schedule: Q01DX009 (ip), vehicle: water) is 106 % of control; the T/C (dose: 24.8 mg/kg/injection, schedule: Q01DX009 (ip), vehicle: water) is 118 % of control; the T/C (dose: 36.0 mg/kg/injection, schedule: Q01DX009 (ip), vehicle: water) was 113 % of control; the T/C (dose: 41.3 mg/kg/injection, schedule: Q01DX009 (ip), vehicle: water) was 150 % of control; the T/C (dose: 60.0 mg/kg/injection, schedule: Q01DX009 (ip), vehicle: water) was 170 % of control; the T/C (dose: 68.8 mg/kg/injection, schedule: Q01DX009 (ip), vehicle: water) was 174 % of control. Besides, the T/C reads like this: (dose: 100.0 mg/kg/injection, schedule: Q01DX009 (ip), vehicle: water) 243 % of control; (dose: 114.7 mg/kg/injection, schedule: Q01DX009 (ip), vehicle: water) 235 % of control.

As to `O=c1cnn(C2OC(CO)C(O)C2O)c(=O)[nH]1` (stereo not drawn), the T/C is, setting by setting: (dose: 37.5 mg/kg/injection, schedule: Q01DX009 (ip), vehicle: saline) 113 % of control; (dose: 75.0 mg/kg/injection, schedule: Q01DX009 (ip), vehicle: saline) 120 % of control; (dose: 250.0 mg/kg/injection, schedule: Q01DX Z (sc), vehicle: saline) 111 % of control; (dose: 500.0 mg/kg/injection, schedule: Q01DX Z (sc), vehicle: saline) 116 % of control; (dose: 1000.0 mg/kg/injection, schedule: Q01DX Z (sc), vehicle: saline) 111 % of control; (dose: 1200.0 mg/kg/injection, schedule: Q01DX009 (ip), vehicle: saline) 103 % of control. In addition, the T/C (dose: 1200.0 mg/kg/injection, schedule: Q01DX009 (sc), vehicle: saline) is 107 % of control.

As for `CO[C@H](/C(C)=C/C=C/C(C)=C/c1coc(C)n1)[C@H](C)[C@H]1C[C@@H](O)[C@@]2(C)O[C@H]2/C=C/[C@@H](C)[C@@H]2C[C@@H](CC(=O)O2)C[C@H]2O[C@@H]2C(=O)O1`, the T/C is, setting by setting: (dose: 0.25 mg/kg/injection, schedule: Q01DX009 (ip), vehicle: Klucel (hydroxypropylcellulose) (HPC)) 107 % of control; (dose: 1.0 mg/kg/injection, schedule: Q01DX009 (ip), vehicle: Klucel (hydroxypropylcellulose) (HPC)) 119 % of control.

The record behind these values is PubChem BioAssay AID258 (DTP/NCI, 2004).
